System: 855422-203-R-J1-PDC spheroids with HUVEC/MSC, viability
Assay: Anticancer human tumor 855422-203-R-J1-PDC patient-derived bladder carcinoma cell line growth inhibition [PI3K]
Conditions: for IC50: curve of first compound; for viability, T/C: stronger effect = lower value; active = viability on the fitted dose curve at most 10% of control; inactive = the rest
Method in brief: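 Targeted small molecules plus PI3K inhibitors, half-log dose series from Cmax (default top 10 microM), were applied to heterotypic spheroids of cancer cells with HUVEC and MSCs. Viability indicated growth inhibition.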

[1] = second compound 0.0316 µM, first compound 0.0316 µM
[2] = second compound 0.0316 µM, first compound 0.1 µM
[3] = second compound 0.0316 µM, first compound 0.316 µM
[4] = second compound 0.0316 µM, first compound 1 µM
[5] = second compound 0.0316 µM, first compound 3.16 µM
[6] = second compound 0.0316 µM, first compound 10 µM
[7] = second compound 0.1 µM, first compound 0.0316 µM
[8] = second compound 0.1 µM, first compound 0.1 µM
[9] = second compound 0.1 µM, first compound 0.316 µM
[10] = second compound 0.1 µM, first compound 1 µM
[11] = second compound 0.1 µM, first compound 3.16 µM
[12] = second compound 0.1 µM, first compound 10 µM
[13] = second compound 0.316 µM, first compound 0.0316 µM
[14] = second compound 0.316 µM, first compound 0.1 µM
[15] = second compound 0.316 µM, first compound 0.316 µM
[16] = second compound 0.316 µM, first compound 1 µM
[17] = second compound 0.316 µM, first compound 3.16 µM
[18] = second compound 0.316 µM, first compound 10 µM
[19] = second compound 1 µM, first compound 0.0316 µM
[20] = second compound 1 µM, first compound 0.1 µM
[21] = second compound 1 µM, first compound 0.316 µM
[22] = second compound 1 µM, first compound 1 µM
[23] = second compound 1 µM, first compound 3.16 µM
[24] = second compound 1 µM, first compound 10 µM
[25] = second compound 0.00316 µM, first compound 0.0316 µM
[26] = second compound 0.00316 µM, first compound 0.1 µM
[27] = second compound 0.00316 µM, first compound 0.316 µM
[28] = second compound 0.00316 µM, first compound 1 µM
[29] = second compound 0.00316 µM, first compound 3.16 µM
[30] = second compound 0.00316 µM, first compound 10 µM
[31] = second compound 0.01 µM, first compound 0.0316 µM
[32] = second compound 0.01 µM, first compound 0.1 µM
[33] = second compound 0.01 µM, first compound 0.316 µM
[34] = second compound 0.01 µM, first compound 1 µM
[35] = second compound 0.01 µM, first compound 3.16 µM
[36] = second compound 0.01 µM, first compound 10 µM
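Also: agents incubated with spheroids for one week before read-out.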
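For viability, T/C in this document: 100% = DMSO vehicle-treated control wells.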

C#Cc1c(F)ccc2cc(O)cc(-c3ncc4c(N5CC6CCC(C5)N6)nc(OCC56CCCN5CC(F)C6)nc4c3F)c12 (stereo unspecified) + Cc1nc(NC(=O)N2CCCC2C(N)=O)sc1-c1ccnc(C(C)(C)C(F)(F)F)c1
inactive: viability, T/C [1] 106% | viability, T/C [2] 92.8% | viability, T/C [3] 108% | viability, T/C [4] 95% | viability, T/C [5] 115% | viability, T/C [6] 115% | viability, T/C [7] 100% | viability, T/C [8] 88.6% | viability, T/C [9] 103% | viability, T/C [10] 93.9% | viability, T/C [11] 115% | viability, T/C [12] 113% | viability, T/C [13] 91.5% | viability, T/C [14] 92.9% | viability, T/C [15] 97.6% | viability, T/C [16] 94.4% | viability, T/C [17] 97.4% | viability, T/C [18] 102% | viability, T/C [19] 70.5% | viability, T/C [20] 78.3% | viability, T/C [21] 70.7% | viability, T/C [22] 73.2% | viability, T/C [23] 75% | viability, T/C [24] 63.3% | viability, T/C (second compound 3.16 µM, first compound 0.0316 µM) 41.5% | viability, T/C (second compound 3.16 µM, first compound 0.1 µM) 48.6% | viability, T/C (second compound 3.16 µM, first compound 0.316 µM) 47.1% | viability, T/C (second compound 3.16 µM, first compound 1 µM) 42.9% | viability, T/C (second compound 3.16 µM, first compound 3.16 µM) 40.6% | viability, T/C (second compound 3.16 µM, first compound 10 µM) 31.8% | viability, T/C (second compound 10 µM, first compound 0.0316 µM) 24.6% | viability, T/C (second compound 10 µM, first compound 0.1 µM) 21.5% | viability, T/C (second compound 10 µM, first compound 0.316 µM) 22.7% | viability, T/C (second compound 10 µM, first compound 1 µM) 22.3% | viability, T/C (second compound 10 µM, first compound 3.16 µM) 19% | viability, T/C (second compound 10 µM, first compound 10 µM) 7.62%
> 10 µM: IC50 (second compound 0.0316 µM) | IC50 (second compound 0.1 µM) | IC50 (second compound 0.316 µM) | IC50 (second compound 1 µM)
< 0.0316 µM: IC50 (second compound 3.16 µM) | IC50 (second compound 10 µM)

CCCS(=O)(=O)Nc1ccc(F)c(C(=O)c2c[nH]c3ncc(-c4ccc(Cl)cc4)cc23)c1F + CC(Nc1ccc2c(c1)OCCn1cc(N3C(=O)OCC3C(F)F)nc1-2)C(N)=O
4.53 µM: IC50 (second compound 0.0316 µM)
4.55 µM: IC50 (second compound 0.01 µM)
3.58 µM: IC50 (second compound 0.1 µM)
< 0.0316 µM: IC50 (second compound 1 µM)
0.981 µM: IC50 (second compound 0.316 µM)
active: viability, T/C [30] 0.17% | viability, T/C [36] 0.24% | viability, T/C [6] 0.18% | viability, T/C [12] 0.28% | viability, T/C [18] 0.2% | viability, T/C [24] 0.31%
inactive: viability, T/C [25] 110% | viability, T/C [26] 89.8% | viability, T/C [27] 104% | viability, T/C [28] 76.1% | viability, T/C [29] 52.6% | viability, T/C [31] 99.2% | viability, T/C [32] 85.2% | viability, T/C [33] 91.8% | viability, T/C [34] 78.5% | viability, T/C [35] 75.8% | viability, T/C [1] 92% | viability, T/C [2] 79.9% | viability, T/C [3] 98.7% | viability, T/C [4] 87.8% | viability, T/C [5] 72.5% | viability, T/C [7] 77.2% | viability, T/C [8] 82% | viability, T/C [9] 74.4% | viability, T/C [10] 72% | viability, T/C [11] 56.7% | viability, T/C [13] 58.9% | viability, T/C [14] 53.3% | viability, T/C [15] 54.9% | viability, T/C [16] 48.9% | viability, T/C [17] 37.1% | viability, T/C [19] 36.7% | viability, T/C [20] 36.5% | viability, T/C [21] 34.2% | viability, T/C [22] 34.8% | viability, T/C [23] 24.1%
3.28 µM: IC50 (second compound 0.00316 µM)

CC1(C)CCC(Nc2ncc(C(F)(F)F)c(-c3c[nH]c4c(P(C)(C)=O)c(C#N)ccc34)n2)CN1 (stereo unspecified) + CC(Nc1ccc2c(c1)OCCn1cc(N3C(=O)OCC3C(F)F)nc1-2)C(N)=O
inactive: viability, T/C [25] 23.7% | viability, T/C [26] 25% | viability, T/C [27] 27.9% | viability, T/C [28] 31.6% | viability, T/C [29] 31.4% | viability, T/C [30] 3.85% | viability, T/C [31] 20.4% | viability, T/C [32] 21.3% | viability, T/C [33] 26.2% | viability, T/C [34] 25.8% | viability, T/C [35] 29.1% | viability, T/C [36] 3.78% | viability, T/C [1] 20.2% | viability, T/C [2] 22.9% | viability, T/C [3] 22.2% | viability, T/C [4] 24.6% | viability, T/C [5] 24.1% | viability, T/C [6] 2.13% | viability, T/C [7] 20.2% | viability, T/C [8] 19.4% | viability, T/C [9] 20% | viability, T/C [10] 23.2% | viability, T/C [11] 21.5% | viability, T/C [12] 3.77% | viability, T/C [13] 15.3% | viability, T/C [14] 17.9% | viability, T/C [15] 15.7% | viability, T/C [16] 15.5% | viability, T/C [19] 14.4% | viability, T/C [20] 14.2% | viability, T/C [21] 13.1%
active: viability, T/C [17] 13.7% | viability, T/C [18] 1.23% | viability, T/C [22] 12.6% | viability, T/C [23] 11.4% | viability, T/C [24] 0.83%
< 0.0316 µM: IC50 (second compound 0.00316 µM) | IC50 (second compound 0.01 µM) | IC50 (second compound 0.0316 µM) | IC50 (second compound 0.1 µM) | IC50 (second compound 0.316 µM) | IC50 (second compound 1 µM)
